Results on 4 molecules are retold here after US20110046039A1, “POST-EXPOSURE PROPHYLAXIS AND TREATMENT OF INFECTIONS” (priority 2007, published 2011).

For one test, the system named is anthrax spores. Also noted: species or system DBA/2 mice. To be noted: mouse, in vivo.
For test [1], the system named is livers of anthrax-challenged mice. To be noted: mouse, in vivo; cited from earlier work.
For another test, the system named is cultured macrophages. To be noted: cited from earlier work.

The structures appear in SMILES notation. Where a SMILES comes first, the peptide text is derived from it. The star is where a group is joined. Cbz = O=C(OCc1ccccc1)*; CH2F = FC*

Consider `CNC(=O)[C@H]1O[C@@H](n2cnc3c(NCc4cccc(I)c4)ncnc32)[C@H](O)[C@@H]1O` [IB-MECA, N^6-(3-iodobenzyl)-adenosine-5′-N-methyluronamide], for which, in the test with anthrax spores, the “protection of mice against post-exposure anthrax” value was “protect mice against post-exposure anthrax”.
On to `O=C(O)c1cn(C2CC2)c2cc(N3CCNCC3)c(F)cc2c1=O` [ciprofloxacin], for which, in the test on anthrax spores (ip, 50 mg/kg), the animals protected is given as 30%.
For the molecule `CNC(=O)[C@H]1O[C@@H](n2cnc3c(NCc4cccc(I)c4)nc(Cl)nc32)[C@H](O)[C@@H]1O` [Cl-IB-MECA, 2-chloro-N^6-(3-iodobenzyl)-adenosine-5′-N-methyluronamide], in the test on anthrax spores, the “protection of exposed animals” value is recorded as 40% and the “protection of mice against post-exposure anthrax” value is “protect mice against post-exposure anthrax”.
`COC(=O)C[C@H](NC(=O)[C@H](C)NC(=O)[C@@H](NC(=O)OCc1ccccc1)C(C)C)C(=O)CF` [z-VAD, z-Val-Ala-Asp(OMe)-fluoromethylketone] (Cbz-Val-Ala-Asp(OMe)-CH2F): the anti-apoptotic effect result (in test [1]; in the test on cultured macrophages) was “protective anti-apoptopic effect” each time.
